Data from ChEMBL document CHEMBL1142468, “Discovery, SAR and X-ray structure of 1H-benzimidazole-5-carboxylic acid cyclohexyl-methyl-amides as inhibitors of inducible T-cell kinase (Itk)” (Bioorg Med Chem Lett, 2008).
Activity calls are given as the source filed them. No cut-off for these calls is given here.

What was measured:
[1] = biological target: T1, Tyrosine-protein kinase ITK/TSK (Homo sapiens, UniProt Q08881); assay: Inhibition of ITK by DELFIA assay
T1 sequence (Q08881 whole entry): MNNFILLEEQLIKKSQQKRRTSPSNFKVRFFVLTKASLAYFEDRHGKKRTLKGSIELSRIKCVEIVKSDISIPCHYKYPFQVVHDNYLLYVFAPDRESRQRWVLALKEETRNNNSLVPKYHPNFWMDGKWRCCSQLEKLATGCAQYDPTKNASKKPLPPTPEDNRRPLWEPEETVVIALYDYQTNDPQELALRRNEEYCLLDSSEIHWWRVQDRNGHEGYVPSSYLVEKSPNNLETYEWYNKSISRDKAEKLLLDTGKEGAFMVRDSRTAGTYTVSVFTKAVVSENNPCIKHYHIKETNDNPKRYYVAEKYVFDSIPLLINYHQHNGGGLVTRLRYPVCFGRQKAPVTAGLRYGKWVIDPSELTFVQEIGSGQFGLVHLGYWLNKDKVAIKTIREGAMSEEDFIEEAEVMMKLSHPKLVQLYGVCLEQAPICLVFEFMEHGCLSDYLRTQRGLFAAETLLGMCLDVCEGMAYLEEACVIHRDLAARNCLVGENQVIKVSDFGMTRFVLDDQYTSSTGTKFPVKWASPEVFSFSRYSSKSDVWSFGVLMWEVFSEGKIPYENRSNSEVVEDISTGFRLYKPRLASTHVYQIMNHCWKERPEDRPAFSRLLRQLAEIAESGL

[2] = biological target: T1, Tyrosine-protein kinase ITK/TSK; assay: Inhibition of human ITK expressed in chicken DT40 cells assessed as B cell receptor-stimulated calcium influx by FLIPR assay; type: cell-based
[3] = Inhibition of anti-CD3-induced IL2 secretion in mouse TH1 cells
T-cell = assay: Inhibition of anti-CD3/anti-CD28-induced IL2 secretion in human CD4+ T cells
[4] = biological target: Tyrosine-protein kinase BTK (Homo sapiens) (UniProt Q06187); assay: Inhibition of Btk
Chain of Tyrosine-protein kinase BTK (Homo sapiens) (Q06187 whole entry): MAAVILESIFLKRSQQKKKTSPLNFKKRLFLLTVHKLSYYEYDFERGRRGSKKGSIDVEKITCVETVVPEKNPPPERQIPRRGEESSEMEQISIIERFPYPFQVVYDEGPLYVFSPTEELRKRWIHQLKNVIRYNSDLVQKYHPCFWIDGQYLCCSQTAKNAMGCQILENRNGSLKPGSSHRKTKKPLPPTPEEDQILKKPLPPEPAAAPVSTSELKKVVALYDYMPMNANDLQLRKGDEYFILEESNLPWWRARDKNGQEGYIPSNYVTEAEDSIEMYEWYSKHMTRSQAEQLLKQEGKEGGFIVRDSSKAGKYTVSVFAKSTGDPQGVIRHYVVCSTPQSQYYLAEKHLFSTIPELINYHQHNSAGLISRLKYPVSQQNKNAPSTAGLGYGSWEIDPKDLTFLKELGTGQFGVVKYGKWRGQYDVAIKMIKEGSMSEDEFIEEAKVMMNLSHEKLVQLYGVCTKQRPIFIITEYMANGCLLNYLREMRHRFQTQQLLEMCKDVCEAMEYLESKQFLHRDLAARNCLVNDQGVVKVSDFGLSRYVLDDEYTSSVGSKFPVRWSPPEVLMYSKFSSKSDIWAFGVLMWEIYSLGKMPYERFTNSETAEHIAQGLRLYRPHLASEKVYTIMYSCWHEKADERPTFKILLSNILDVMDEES

[5] = biological target: Tyrosine-protein kinase Lyn (Homo sapiens) (UniProt P07948); assay: Inhibition of Lyn kinase
Chain of Tyrosine-protein kinase Lyn (Homo sapiens) (P07948 2-512 limits assumed): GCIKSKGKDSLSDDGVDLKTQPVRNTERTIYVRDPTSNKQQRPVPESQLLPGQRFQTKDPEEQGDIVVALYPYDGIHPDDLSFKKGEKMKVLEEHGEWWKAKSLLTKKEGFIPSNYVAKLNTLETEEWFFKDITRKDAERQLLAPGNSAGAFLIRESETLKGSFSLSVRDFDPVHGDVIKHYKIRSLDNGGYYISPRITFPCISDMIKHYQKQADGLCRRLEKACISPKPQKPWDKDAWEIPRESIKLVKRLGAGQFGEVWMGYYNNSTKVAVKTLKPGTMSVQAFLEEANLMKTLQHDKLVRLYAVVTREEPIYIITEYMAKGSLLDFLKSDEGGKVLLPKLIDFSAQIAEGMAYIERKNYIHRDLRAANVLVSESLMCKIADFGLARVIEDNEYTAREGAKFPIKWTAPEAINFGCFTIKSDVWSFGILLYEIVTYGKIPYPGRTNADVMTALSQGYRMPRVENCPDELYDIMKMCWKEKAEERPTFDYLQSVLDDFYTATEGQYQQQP

[6] = biological target: Tyrosine-protein kinase SYK (Homo sapiens) (UniProt P43405); assay: Inhibition of Syk
Insulin receptor = Insulin receptor (Homo sapiens, UniProt P06213); assay: Inhibition of IRK
Chain of Insulin receptor (P06213 28-758 limits assumed): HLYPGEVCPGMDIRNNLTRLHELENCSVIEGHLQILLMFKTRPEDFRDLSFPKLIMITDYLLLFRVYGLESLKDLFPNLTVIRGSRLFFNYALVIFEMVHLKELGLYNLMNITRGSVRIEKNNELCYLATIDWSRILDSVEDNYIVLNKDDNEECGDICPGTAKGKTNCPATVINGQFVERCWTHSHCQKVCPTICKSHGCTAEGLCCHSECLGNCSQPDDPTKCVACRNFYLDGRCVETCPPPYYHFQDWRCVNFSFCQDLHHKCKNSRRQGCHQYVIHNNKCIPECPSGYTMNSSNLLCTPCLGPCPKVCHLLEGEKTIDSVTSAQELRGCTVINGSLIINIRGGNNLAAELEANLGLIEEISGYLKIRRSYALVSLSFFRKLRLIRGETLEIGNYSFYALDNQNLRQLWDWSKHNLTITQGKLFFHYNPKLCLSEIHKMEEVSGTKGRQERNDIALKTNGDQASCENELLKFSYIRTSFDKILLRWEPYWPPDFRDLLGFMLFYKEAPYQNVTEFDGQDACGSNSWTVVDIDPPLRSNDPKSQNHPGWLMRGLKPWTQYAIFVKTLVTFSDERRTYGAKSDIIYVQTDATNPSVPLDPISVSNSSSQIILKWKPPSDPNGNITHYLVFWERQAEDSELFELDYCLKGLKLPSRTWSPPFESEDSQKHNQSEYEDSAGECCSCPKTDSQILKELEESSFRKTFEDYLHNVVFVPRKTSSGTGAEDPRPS
Chain of Insulin receptor (P06213 763-1382 limits assumed): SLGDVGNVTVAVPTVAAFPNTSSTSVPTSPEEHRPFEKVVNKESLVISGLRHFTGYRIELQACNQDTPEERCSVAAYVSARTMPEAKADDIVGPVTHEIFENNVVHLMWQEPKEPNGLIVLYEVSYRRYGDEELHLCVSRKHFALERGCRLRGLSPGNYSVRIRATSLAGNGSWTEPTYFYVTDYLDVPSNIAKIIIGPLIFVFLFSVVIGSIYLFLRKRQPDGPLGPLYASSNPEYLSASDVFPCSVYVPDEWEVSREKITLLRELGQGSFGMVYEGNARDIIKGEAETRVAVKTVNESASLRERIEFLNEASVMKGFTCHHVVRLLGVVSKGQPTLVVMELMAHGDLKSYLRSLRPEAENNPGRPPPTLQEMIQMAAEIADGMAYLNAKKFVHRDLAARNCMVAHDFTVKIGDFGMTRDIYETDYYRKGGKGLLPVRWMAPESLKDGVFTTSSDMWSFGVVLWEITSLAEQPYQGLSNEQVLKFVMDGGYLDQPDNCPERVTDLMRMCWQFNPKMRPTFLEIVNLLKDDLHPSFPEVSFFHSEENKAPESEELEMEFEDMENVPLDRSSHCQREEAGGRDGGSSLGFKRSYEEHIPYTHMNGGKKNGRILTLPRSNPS

Splenocyte = assay: Inhibition of anti-CD3-induced IL2 secretion in mouse splenocytes
Mus musculus = assay: Inhibition of anti-CD3-induced IL2 production in sc dosed mouse; type: functional, organism-based

SMILES	IC50 [1] [nM]	IC50 (Insulin receptor) [nM]	also measured
CN(C(=O)C1CCCCC1)c1ccc2c(c1)nc(NC(=O)c1ccc(C#N)cc1)n2CCCn1ccnc1	4	–	IC50 [2]: 510 nM; IC50 [3]: 350 nM; IC50 (T-cell): 650 nM
CN(C(=O)C1CCCCC1)c1ccc2c(c1)nc(CC(=O)c1ccc(Cl)cc1)n2CCc1ccccc1	> 20000	–	–
CNc1ccc2c(c1)nc(NC(=O)c1ccc(C#N)cc1)n2CCC(N)=O	76	–	–
CC(C(=O)C1CCCCC1)c1ccc2c(c1)nc(CC(=O)c1ccc(C#N)cc1)n2CCC(N)=O (stereo not drawn)	3	–	–
CN(C(=O)C1CCCCC1)c1ccc2c(c1)nc(NC(=O)c1cccs1)n2CCC(N)=O	–	–	Activity [4]: inactive; Activity [5]: inactive; Activity [6]: inactive
CC(=O)c1ccc(C(=O)Nc2nc3cc(N(C)C(=O)C4CCCCC4)ccc3n2CCC(N)=O)cc1	–	> 10000	–
CN(C(=O)C1CCCCC1)c1ccc2c(c1)nc(NC(=O)c1ccc(C#N)cc1)n2CCc1ccc(Cl)cc1Cl	2000	–	–
COc1cccc(C(=O)Nc2nc3cc(N(C)C(=O)C4CCCCC4)ccc3n2CCC(N)=O)c1	–	550	–
CN(C(=O)C1CCCCC1)c1ccc2c(c1)nc(N)n2CCC(N)=O	> 20000	–	–
CN(C(=O)C1CCCCC1)c1ccc2c(c1)nc(NC(=O)c1ccc(Cl)cc1)n2CCC(N)=O	–	–	IC50 [3]: 440 nM; IC50 (Splenocyte): 520 nM; IC50 (T-cell): 4100 nM
Cc1cccc(C(=O)Nc2nc3cc(N(C)C(=O)C4CCCCC4)ccc3n2CCC(N)=O)c1	–	550	–
CN(C(=O)C1CCCCC1)c1ccc2c(c1)nc(NC(=O)c1cccc(Br)c1)n2CCC(N)=O	9	95	–
CC(=O)N1CCN(C(=O)c2cc(CSc3cnc(NC(=O)c4ccc(CNC(C)C(C)(C)C)cc4)s3)cc(C)c2C)CC1 (stereo not drawn)	–	–	Activity (Mus musculus): Dose-dependent effect
CC(C)C(=O)N(C)c1ccc2c(c1)nc(NC(=O)c1ccc(C#N)cc1)n2CCC(N)=O	220	–	–

Now from value to compound, other results behind:

IC50 [1] [nM]	IC50 (Insulin receptor) [nM]	SMILES	also measured
–	125	CN(C(=O)C1CCCCC1)c1ccc2c(c1)nc(NC(=O)c1cccc(C#N)c1)n2CCC(N)=O	–
1800	–	CNC(=O)c1ccc(C(=O)Nc2nc3cc(N(C)C(=O)C4CCCCC4)ccc3n2CCC(N)=O)cc1	–
4500	–	CCCCCCCn1c(NC(=O)c2ccc(C#N)cc2)nc2cc(N(C)C(=O)C3CCCCC3)ccc21	–
–	> 10000	Cc1ccc(C(=O)Nc2nc3cc(N(C)C(=O)C4CCCCC4)ccc3n2CCC(N)=O)cc1	–
9	–	CNC(=O)CCn1c(NC(=O)c2ccc(C#N)cc2)nc2cc(N(C)C(=O)C3CCCCC3)ccc21	–
16	–	COCCCn1c(NC(=O)c2ccc(C#N)cc2)nc2cc(N(C)C(=O)C3CCCCC3)ccc21	–
–	> 10000	COc1ccc(C(=O)Nc2nc3cc(N(C)C(=O)C4CCCCC4)ccc3n2CCC(N)=O)cc1	–
3	> 10000	CN(C(=O)C1CCCCC1)c1ccc2c(c1)nc(NC(=O)c1ccc(Br)cc1)n2CCC(N)=O	–
73	–	CN(C(=O)C1CCCCC1)c1ccc2c(c1)nc(NC(=O)c1ccc(C#N)cc1)n2CC(N)=O	–
35	–	CC(C)n1c(NC(=O)c2ccc(C#N)cc2)nc2cc(N(C)C(=O)C3CCCCC3)ccc21	–
